These results are taken from article PMC11848559, “Inhibition of CDH11 Activates cGAS‐STING by Stimulating Branched Chain Amino Acid Catabolism and Mitigates Lung Metastasis of Adenoid Cystic Carcinoma” (Advanced Science, 2024).

The term Kd denotes a measure of binding affinity in units of concentration.

One experiment concerns the target T1, CDH11 (SACC-83 cells) (Homo sapiens, UniProt P55287).
T1 construct: endogenous CDH11 in intact SACC-83 cells, untagged, detected by western blot with anti-CDH11 antibody
T1 sequence (P55287 54-796): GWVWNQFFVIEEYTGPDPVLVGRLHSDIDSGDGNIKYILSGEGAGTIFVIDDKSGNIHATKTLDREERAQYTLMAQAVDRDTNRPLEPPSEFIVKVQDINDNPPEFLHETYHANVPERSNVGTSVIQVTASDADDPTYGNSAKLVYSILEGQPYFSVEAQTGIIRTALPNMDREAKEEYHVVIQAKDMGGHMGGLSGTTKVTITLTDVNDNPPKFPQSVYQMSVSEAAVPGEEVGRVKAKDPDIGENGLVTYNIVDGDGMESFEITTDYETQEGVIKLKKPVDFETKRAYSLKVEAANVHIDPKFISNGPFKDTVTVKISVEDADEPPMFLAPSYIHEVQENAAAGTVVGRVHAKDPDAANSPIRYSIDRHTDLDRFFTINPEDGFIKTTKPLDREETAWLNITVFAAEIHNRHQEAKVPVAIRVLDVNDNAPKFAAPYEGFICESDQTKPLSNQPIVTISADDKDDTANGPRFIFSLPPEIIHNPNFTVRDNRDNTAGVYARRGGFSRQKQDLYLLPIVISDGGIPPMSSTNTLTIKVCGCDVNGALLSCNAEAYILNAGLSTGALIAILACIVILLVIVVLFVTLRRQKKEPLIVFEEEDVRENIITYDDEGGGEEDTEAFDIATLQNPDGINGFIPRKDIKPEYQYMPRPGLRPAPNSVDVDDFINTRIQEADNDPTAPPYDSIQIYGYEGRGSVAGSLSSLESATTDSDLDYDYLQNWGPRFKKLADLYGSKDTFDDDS
The experiment is described as follows: cellular thermal shift assay (western blot). Format: cell-based. Conditions: intact cells, 6 h treatment at cell-viability IC50 dose; 53-66 °C, 3 min. For orientation: In western blotting, separated proteins are transferred to a membrane and probed.

For experiment [1], the target named is T2, Recombinant Human His-Tagged Cadherin-11 Protein (CDH11) (Homo sapiens, UniProt P55287).
T2 construct: commercial recombinant His-tagged protein (Sino Biological); amine-coupled to CM7 chip
T2 sequence (P55287 54-617 limits assumed): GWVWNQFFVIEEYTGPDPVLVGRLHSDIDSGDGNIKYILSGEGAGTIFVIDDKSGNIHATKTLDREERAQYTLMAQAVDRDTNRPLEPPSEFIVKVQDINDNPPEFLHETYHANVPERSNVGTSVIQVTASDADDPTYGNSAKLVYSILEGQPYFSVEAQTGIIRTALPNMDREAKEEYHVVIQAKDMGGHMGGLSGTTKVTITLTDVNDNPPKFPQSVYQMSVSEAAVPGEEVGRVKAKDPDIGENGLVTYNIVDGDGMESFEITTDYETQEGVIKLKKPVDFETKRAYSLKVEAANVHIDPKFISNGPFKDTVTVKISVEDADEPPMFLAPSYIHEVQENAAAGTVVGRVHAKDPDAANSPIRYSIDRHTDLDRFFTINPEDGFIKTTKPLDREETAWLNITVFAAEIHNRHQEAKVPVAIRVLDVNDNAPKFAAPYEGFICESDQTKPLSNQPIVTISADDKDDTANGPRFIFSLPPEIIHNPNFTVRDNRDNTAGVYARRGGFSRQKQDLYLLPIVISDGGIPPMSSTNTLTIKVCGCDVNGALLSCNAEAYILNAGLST
The experiment is described as follows: surface plasmon resonance (Biacore, CM7 chip, protein immobilised). The experiment is classed as binding.

Where two headings read alike, the source gives them in different places.

With `Cc1ccc(-c2cc(C(F)(F)F)nn2-c2ccc(S(N)(=O)=O)cc2)cc1` [CXB, Celecoxib], the “cellular thermal shift assay (western blot)” value on CDH11 (SACC-83 cells) is “All three compounds exhibited significant binding capability toward CDH11”. Also, the dissociation constant (Kd) in experiment [1] is 4.67 µM.
With `Cc1ccc(C)c(-c2cc(C(F)(F)F)nn2-c2ccc(S(N)(=O)=O)cc2)c1` [DMC, Dimethylcelecoxib], the “cellular thermal shift assay (western blot)” value on CDH11 (SACC-83 cells) is “All three compounds exhibited significant binding capability toward CDH11”. For the same molecule, in experiment [1], the Kd stood at 10.9 µM.
As for SD-133, in experiment [1] (25 °C, analyte 3.125-100 µM), the Kd was 27.4 µM.
